Reference: PubChem BioAssay (NCI)
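Results reflect a 48-hour exposure of cells in 96-well plates to compound at five concentrations. GI50 = concentration required for 50% inhibition of growth. At the TGI there is no net growth.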

How the values were obtained:
Assay in all cases: NCI tumour cell line growth inhibition, 48 h
OVCAR-4 ovarian = tested on: OVCAR-4 ovarian
HOP-92 NSCLC = tested on: HOP-92 NSCLC
OVCAR-8 ovarian = tested on: OVCAR-8 ovarian
SK-MEL-28 melanoma = tested on: SK-MEL-28 melanoma
SW-620 colon = tested on: SW-620 colon
IGROV1 ovarian = tested on: IGROV1 ovarian
HL-60(TB) leukemia = tested on: HL-60(TB) leukemia
CAKI-1 renal = tested on: CAKI-1 renal
MDA-MB-435 = tested on: MDA-MB-435
SK-OV-3 ovarian = tested on: SK-OV-3 ovarian
SR leukemia = tested on: SR leukemia
SK-MEL-2 melanoma = tested on: SK-MEL-2 melanoma
U251 CNS = tested on: U251 CNS
OVCAR-5 ovarian = tested on: OVCAR-5 ovarian
EKVX NSCLC = tested on: EKVX NSCLC
SF-268 CNS = tested on: SF-268 CNS
SK-MEL-5 melanoma = tested on: SK-MEL-5 melanoma
BT-549 breast = tested on: BT-549 breast
HCT-15 colon = tested on: HCT-15 colon
T-47D breast = tested on: T-47D breast
ACHN renal = tested on: ACHN renal
HS 578T breast = tested on: HS 578T breast
HCT-116 colon = tested on: HCT-116 colon
DU-145 prostate = tested on: DU-145 prostate
KM12 colon = tested on: KM12 colon
SNB-19 CNS = tested on: SNB-19 CNS
HOP-62 NSCLC = tested on: HOP-62 NSCLC
COLO 205 colon = tested on: COLO 205 colon
MCF7 breast = tested on: MCF7 breast
A498 renal = tested on: A498 renal
M14 melanoma = tested on: M14 melanoma
RXF 393 renal = tested on: RXF 393 renal
NCI-H23 lung = tested on: NCI-H23 lung
OVCAR-3 ovarian = tested on: OVCAR-3 ovarian
K-562 leukemia = tested on: K-562 leukemia
NCI-H522 lung = tested on: NCI-H522 lung
HT29 colon = tested on: HT29 colon
SF-539 CNS = tested on: SF-539 CNS
SN12C renal = tested on: SN12C renal
UACC-257 melanoma = tested on: UACC-257 melanoma
PC-3 prostate = tested on: PC-3 prostate
NCI-H460 lung = tested on: NCI-H460 lung
RPMI-8226 leukemia = tested on: RPMI-8226 leukemia
NCI-H226 lung = tested on: NCI-H226 lung
CCRF-CEM leukemia = tested on: CCRF-CEM leukemia
MDA-MB-231 breast = tested on: MDA-MB-231 breast
NCI/ADR-RES ovarian = tested on: NCI/ADR-RES ovarian
HCC-2998 colon = tested on: HCC-2998 colon
786-0 renal = tested on: 786-0 renal
UACC-62 melanoma = tested on: UACC-62 melanoma
A549 NSCLC = tested on: A549 NSCLC
TK-10 renal = tested on: TK-10 renal
UO-31 renal = tested on: UO-31 renal
SF-295 CNS = tested on: SF-295 CNS
MOLT-4 leukemia = tested on: MOLT-4 leukemia
LOX IMVI melanoma = tested on: LOX IMVI melanoma

In the case of `CC(C)(C)OC(=O)N(CCCN)CCCCN`, the TGI (OVCAR-4 ovarian) is reported as > 100 µM, the TGI (HOP-92 NSCLC) is reported as > 100 µM and the TGI (OVCAR-8 ovarian) is reported as > 100 µM. For the same compound, the TGI (SK-MEL-28 melanoma) was > 100 µM, the TGI (SW-620 colon) was > 100 µM and the TGI (IGROV1 ovarian) was > 100 µM. For the same compound, the TGI (HL-60(TB) leukemia) was > 100 µM, the TGI (CAKI-1 renal) was > 100 µM and the TGI (MDA-MB-435) was > 100 µM. The TGI (SK-OV-3 ovarian) was > 100 µM, the TGI (SR leukemia) was > 100 µM and the TGI (SK-MEL-2 melanoma) was > 100 µM. For the same compound, the TGI (U251 CNS) was > 100 µM, the TGI (OVCAR-5 ovarian) was > 100 µM and the TGI (EKVX NSCLC) was > 100 µM. For the same compound, the TGI (SF-268 CNS) was > 100 µM, the TGI (SK-MEL-5 melanoma) was > 100 µM and the TGI (BT-549 breast) was > 100 µM. The TGI (HCT-15 colon) was > 100 µM, the TGI (T-47D breast) was > 100 µM and the TGI (ACHN renal) was > 100 µM. The TGI (HS 578T breast) was > 100 µM, the TGI (HCT-116 colon) was > 100 µM and the TGI (DU-145 prostate) was > 100 µM. For the same compound, the TGI (KM12 colon) was > 100 µM, the TGI (SNB-19 CNS) was > 100 µM and the TGI (HOP-62 NSCLC) was > 100 µM. For the same compound, the TGI (COLO 205 colon) was > 100 µM, the TGI (MCF7 breast) was > 100 µM and the TGI (A498 renal) was > 100 µM. The TGI (M14 melanoma) was > 100 µM, the TGI (RXF 393 renal) was > 100 µM and the TGI (NCI-H23 lung) was > 100 µM. The TGI (OVCAR-3 ovarian) was > 100 µM, the TGI (K-562 leukemia) was > 100 µM and the TGI (NCI-H522 lung) was > 100 µM. The TGI (HT29 colon) was > 100 µM, the TGI (SF-539 CNS) was > 100 µM and the TGI (SN12C renal) was > 100 µM. The TGI (UACC-257 melanoma) was > 100 µM, the TGI (PC-3 prostate) was > 100 µM and the TGI (NCI-H460 lung) was > 100 µM. For the same compound, the TGI (RPMI-8226 leukemia) was > 100 µM, the TGI (NCI-H226 lung) was > 100 µM and the TGI (CCRF-CEM leukemia) was > 100 µM. The TGI (MDA-MB-231 breast) was > 100 µM, the TGI (NCI/ADR-RES ovarian) was > 100 µM and the TGI (HCC-2998 colon) was > 100 µM. For the same compound, the TGI (786-0 renal) was > 100 µM, the TGI (UACC-62 melanoma) was > 100 µM and the TGI (A549 NSCLC) was > 100 µM. For the same compound, the TGI (TK-10 renal) was > 100 µM, the TGI (UO-31 renal) was > 100 µM and the TGI (SF-295 CNS) was > 100 µM. The TGI (MOLT-4 leukemia) was > 100 µM.
`COc1ccc(C2NC(=O)c3cc4c(cc3N2)OCO4)cc1` (configuration not stated) was tested, and the GI50 (OVCAR-4 ovarian) was 5.52 µM, the TGI (OVCAR-4 ovarian) was > 100 µM and the GI50 (HOP-92 NSCLC) was 11.4 µM. The TGI (HOP-92 NSCLC) was > 100 µM, the GI50 (OVCAR-8 ovarian) was 1.63 µM and the TGI (OVCAR-8 ovarian) was > 100 µM. For the same compound, the GI50 (SK-MEL-28 melanoma) was 0.719 µM, the TGI (SK-MEL-28 melanoma) was > 100 µM and the GI50 (SW-620 colon) was 0.432 µM. The TGI (SW-620 colon) was > 100 µM, the GI50 (IGROV1 ovarian) was 4.92 µM and the TGI (IGROV1 ovarian) was > 100 µM. The GI50 (HL-60(TB) leukemia) was 0.345 µM, the TGI (HL-60(TB) leukemia) was 1.85 µM and the GI50 (CAKI-1 renal) was 0.466 µM. The TGI (CAKI-1 renal) was > 100 µM, the GI50 (MDA-MB-435) was 0.215 µM and the TGI (MDA-MB-435) was 0.543 µM. The GI50 (SK-OV-3 ovarian) was 0.499 µM, the TGI (SK-OV-3 ovarian) was 7.36 µM and the GI50 (SR leukemia) was 0.415 µM. The TGI (SR leukemia) was > 100 µM, the GI50 (SK-MEL-2 melanoma) was 2.84 µM and the TGI (SK-MEL-2 melanoma) was > 100 µM. For the same compound, the GI50 (U251 CNS) was 0.849 µM, the TGI (U251 CNS) was > 100 µM and the GI50 (OVCAR-5 ovarian) was 1.51 µM. For the same compound, the TGI (OVCAR-5 ovarian) was > 100 µM, the GI50 (EKVX NSCLC) was 2.42 µM and the TGI (EKVX NSCLC) was > 100 µM. The GI50 (SF-268 CNS) was 2 µM, the TGI (SF-268 CNS) was > 100 µM and the GI50 (SK-MEL-5 melanoma) was 0.297 µM. For the same compound, the TGI (SK-MEL-5 melanoma) was 50.5 µM, the GI50 (BT-549 breast) was 16.5 µM and the TGI (BT-549 breast) was > 100 µM. The GI50 (HCT-15 colon) was 0.504 µM, the TGI (HCT-15 colon) was > 100 µM and the GI50 (T-47D breast) was 0.683 µM. For the same compound, the TGI (T-47D breast) was > 100 µM, the GI50 (ACHN renal) was 4.1 µM and the TGI (ACHN renal) was > 100 µM. For the same compound, the GI50 (HS 578T breast) was 1.42 µM, the TGI (HS 578T breast) was > 100 µM and the GI50 (HCT-116 colon) was 0.511 µM. For the same compound, the TGI (HCT-116 colon) was > 100 µM, the GI50 (DU-145 prostate) was 0.807 µM and the TGI (DU-145 prostate) was > 100 µM. For the same compound, the GI50 (KM12 colon) was 0.557 µM, the TGI (KM12 colon) was > 100 µM and the GI50 (SNB-19 CNS) was 0.966 µM. The TGI (SNB-19 CNS) was > 100 µM, the GI50 (HOP-62 NSCLC) was 1.02 µM and the TGI (HOP-62 NSCLC) was > 100 µM. For the same compound, the GI50 (LOX IMVI melanoma) was 0.821 µM, the TGI (LOX IMVI melanoma) was > 100 µM and the GI50 (COLO 205 colon) was 0.408 µM. The TGI (COLO 205 colon) was 3.56 µM, the GI50 (MCF7 breast) was 0.339 µM and the TGI (MCF7 breast) was > 100 µM. It also gave a GI50 (A498 renal) of 0.164 µM, a TGI (A498 renal) of 2.95 µM and a GI50 (M14 melanoma) of 0.927 µM. For the same compound, the TGI (M14 melanoma) was > 100 µM, the GI50 (RXF 393 renal) was 0.287 µM and the TGI (RXF 393 renal) was 1.61 µM. For the same compound, the GI50 (NCI-H23 lung) was 1.25 µM, the TGI (NCI-H23 lung) was > 100 µM and the GI50 (OVCAR-3 ovarian) was 0.791 µM. It also gave a TGI (OVCAR-3 ovarian) of 3.52 µM, a GI50 (NCI-H522 lung) of 1.87 µM and a TGI (NCI-H522 lung) of 6.58 µM. For the same compound, the GI50 (HT29 colon) was 0.856 µM, the TGI (HT29 colon) was > 100 µM and the GI50 (SF-539 CNS) was 1.01 µM. The TGI (SF-539 CNS) was 9.9 µM, the GI50 (SN12C renal) was 0.481 µM and the TGI (SN12C renal) was > 100 µM. The GI50 (PC-3 prostate) was 2.81 µM, the TGI (PC-3 prostate) was > 100 µM and the GI50 (NCI-H460 lung) was 0.341 µM. For the same compound, the TGI (NCI-H460 lung) was > 100 µM, the TGI (RPMI-8226 leukemia) was > 100 µM and the GI50 (NCI-H226 lung) was 0.389 µM. The TGI (NCI-H226 lung) was 6.09 µM, the GI50 (CCRF-CEM leukemia) was 0.868 µM and the TGI (CCRF-CEM leukemia) was > 100 µM. The GI50 (MDA-MB-231 breast) was 3.03 µM, the TGI (MDA-MB-231 breast) was > 100 µM and the GI50 (NCI/ADR-RES ovarian) was 0.508 µM. The TGI (NCI/ADR-RES ovarian) was 3.86 µM, the GI50 (HCC-2998 colon) was 1.07 µM and the TGI (HCC-2998 colon) was 7.14 µM. The GI50 (786-0 renal) was 2.38 µM, the TGI (786-0 renal) was > 100 µM and the GI50 (UACC-62 melanoma) was 0.571 µM. For the same compound, the TGI (UACC-62 melanoma) was > 100 µM, the GI50 (A549 NSCLC) was 0.678 µM and the TGI (A549 NSCLC) was > 100 µM. For the same compound, the GI50 (TK-10 renal) was 19.3 µM, the TGI (TK-10 renal) was > 100 µM and the GI50 (UO-31 renal) was 13.5 µM. The TGI (UO-31 renal) was > 100 µM, the GI50 (SF-295 CNS) was 0.704 µM and the TGI (SF-295 CNS) was > 100 µM. For the same compound, the GI50 (MOLT-4 leukemia) was 2.54 µM and the TGI (MOLT-4 leukemia) was > 100 µM.
